Test system: Brassica plants comprising mutant AHAS alleles
Test: Field trial, pre-planting treatment (0, 10, 20, 30 g a.i./ha), two locations in Canada: ERG, EST1, EST2, PPTOX, VIG1, VIG2, VIG3 scores
Assay type: in vivo, Brassica napus
Text: Tests were set up and conducted to asses the growth and performance of plants comprising AHAS full knock-out alleles, and to further analyze the correlation between the presence of full knockout and missense AHAS genes in Brassica plants and plant growth and herbicide tolerance of the Brassica plants in the field. To this end, the Brassica plants identified in Example 1 and 2 were backcrossed two times with an elite parent line, and subsequently selfed twice to obtain homozygous plants (BC2S2). Plants were grown as row plots in a split plot design with three replicates (main plots=herbicide treatments, subplots=genotypes) at two locations in Canada. Treatment pre-planting was carried out on the soil about two days before sowing with a dose of 0 (treatment A), 10 (treatment B), 20 (treatment C) or 30 (treatment D) g a.i./ha of thiencarbazone methyl. Herbicide tolerance was measured by scoring for different parameters. The parameter emergence (ERG) was scored at the cotyledon stage on a scale 1-9, where 1 means late emergence and 9 means early emergence. Establishment was scored 14 days after sowing (EST1) and 21 days after sowing (EST2). Scores were from 1 to 9, where 1 is the worst establishment (least plants that emerged), and 9 is the best establishment (most plants emerged). Phytotoxicity (PPTOX) was determined after establishment. Plants were evaluated on a scale of 1 to 9, where 1=completely yellowing, 5=50% of plant is yellow and 9=no yellowing. The vigor scores (see above) were determined at 1-2 leaf stage (VIG1), 7 days after VIG1 (VIG2) and 14 days after VIG1 (VIG3). The average values (Av) and standard deviations (SD) of the scores for the different parameters are represented in Table 7a-g.
Further, the contribution of the knock-out allele to herbicide tolerance conferred by the missense allele was calculated. First, the scores were corrected for a possible effect of the growth per se, independent of herbicide treatment. To this end, the scores for treatments B, C and D were divided by the scores for treatment A for the same genotype and for the same parameter (corrected herbicide tolerance scores). Next, the effect of the knock-out allele to these corrected herbicide tolerance scores obtained by the missense allele was calculated. Therefore, the corrected herbicide tolerance scores for the missense—knock-out allele combination was divided by the corrected herbicide tolerance scores for the missense allele—wild-type combination. In case the knock-out allele has no effect on herbicide tolerance conferred by the missense allele, this ratio should be 1. In case the knock-out allele positively contributes to the herbicide tolerance conferred by the missense allele, this ratio should be higher than 1. The results for the contribution of the knock-out allele to herbicide tolerance conferred by the missense allele as calculated above are shown in table 8.

[1] = AHAS1 HETO112, AHAS3 WT, treatment C 20 g a.i./ha pre-planting, Location A
[2] = AHAS1 HETO112, AHAS3 WT, treatment C 20 g a.i./ha pre-planting, Location B
[3] = AHAS1 HETO112, AHAS3 WT, treatment D 30 g a.i./ha pre-planting, Location A
[4] = AHAS1 HETO112, AHAS3 WT, treatment D 30 g a.i./ha pre-planting, Location B
[5] = AHAS1 HETO112/AHAS3 HETO111, 10 g a.i./ha pre-planting (B), Location A
[6] = AHAS1 HETO112/AHAS3 HETO111, 10 g a.i./ha pre-planting (B), Location B
[7] = AHAS1 HETO112/AHAS3 HETO111, 20 g a.i./ha pre-planting (C), Location A
[8] = AHAS1 HETO112/AHAS3 HETO111, 20 g a.i./ha pre-planting (C), Location B
[9] = AHAS1 HETO112/AHAS3 HETO111, 30 g a.i./ha pre-planting (D), Location A
[10] = AHAS1 HETO112/AHAS3 HETO111, 30 g a.i./ha pre-planting (D), Location B
[11] = AHAS1 HETO112/AHAS3 WT, 10 g a.i./ha pre-planting (B), Location A
[12] = AHAS1 HETO112/AHAS3 WT, 10 g a.i./ha pre-planting (B), Location B
[13] = AHAS1 HETO112/AHAS3 WT, 20 g a.i./ha pre-planting (C), Location A
[14] = AHAS1 HETO112/AHAS3 WT, 20 g a.i./ha pre-planting (C), Location B
[15] = AHAS1 HETO112/AHAS3 WT, 30 g a.i./ha pre-planting (D), Location A
[16] = AHAS1 HETO112/AHAS3 WT, 30 g a.i./ha pre-planting (D), Location B
[17] = AHAS1 WT, AHAS3 HETO104, treatment B 10 g a.i./ha pre-planting, Location A
[18] = AHAS1 WT, AHAS3 HETO104, treatment B 10 g a.i./ha pre-planting, Location B
[19] = AHAS1 WT, AHAS3 HETO104, treatment C 20 g a.i./ha pre-planting, Location A
[20] = AHAS1 WT, AHAS3 HETO104, treatment C 20 g a.i./ha pre-planting, Location B
[21] = AHAS1 WT, AHAS3 HETO104, treatment D 30 g a.i./ha pre-planting, Location A
[22] = AHAS1 WT, AHAS3 HETO104, treatment D 30 g a.i./ha pre-planting, Location B

COC(=O)c1csc(C)c1S(=O)(=O)NC(=O)n1nc(OC)n(C)c1=O [thiencarbazone-methyl, methyl 4-[(4,5-dihydro-3-methoxy-4-methyl-5-oxo-1H-1,2,4-triazol-1-yl)carbonylsulfamoyl]-5-methylthiophene-3-carboxylate]
5.33: establishment (EST2) score, Av [7] | vigor2 (VIG2) score, Av [8] | vigor2 (VIG2) score, Av [10] | emergence (ERG) score Av (AHAS1 WT, AHAS3 HETO111 (HETO108+HETO111 series), treatment B 10 g a.i./ha pre-planting, Location A)
3.67: establishment (EST2) score, Av [10]
1.33: establishment (EST1) score Av, 14 days after sowing [2] | vigor1 (VIG1) score, Av [12] | emergence (ERG) score Av [20]
3.33: establishment (EST1) score Av, 14 days after sowing [18]
2.00: emergence (ERG) score Av [17] | emergence (ERG) score Av [18]
6.67: vigor2 (VIG2) score, Av [6] | vigor2 (VIG2) score, Av [9]
4.00: vigor1 (VIG1) score, Av [10]
5.00: establishment (EST2) score, Av [8]
6.33: vigor1 (VIG1) score, Av [5] | vigor2 (VIG2) score, Av [7]
7.33: vigor2 (VIG2) score, Av [5]
5.67: establishment (EST2) score, Av [5] | establishment (EST2) score, Av [6] | establishment (EST2) score, Av [9]
1.67: establishment (EST2) score, Av [11] | establishment (EST2) score, Av [14]
2.67: establishment (EST2) score, Av [12]
1.00: emergence (ERG) score Av [1] | establishment (EST1) score Av, 14 days after sowing [1] | emergence (ERG) score Av [2] | emergence (ERG) score Av [3] | establishment (EST1) score Av, 14 days after sowing [3] | emergence (ERG) score Av [4] | establishment (EST1) score Av, 14 days after sowing [4] | phytotoxicity (PPTOX) score, Av [11] | vigor1 (VIG1) score, Av [11] | vigor2 (VIG2) score, Av [11] | phytotoxicity (PPTOX) score, Av [12] | vigor2 (VIG2) score, Av [12] | establishment (EST2) score, Av [13] | phytotoxicity (PPTOX) score, Av [13] | vigor1 (VIG1) score, Av [13] | vigor2 (VIG2) score, Av [13] | phytotoxicity (PPTOX) score, Av [14] | vigor1 (VIG1) score, Av [14] | vigor2 (VIG2) score, Av [14] | establishment (EST2) score, Av [15] | phytotoxicity (PPTOX) score, Av [15] | vigor1 (VIG1) score, Av [15] | vigor2 (VIG2) score, Av [15] | establishment (EST2) score, Av [16] | phytotoxicity (PPTOX) score, Av [16] | vigor1 (VIG1) score, Av [16] | vigor2 (VIG2) score, Av [16] | emergence (ERG) score Av [19] | establishment (EST1) score Av, 14 days after sowing [19] | emergence (ERG) score Av [21] | establishment (EST1) score Av, 14 days after sowing [21] | emergence (ERG) score Av [22] | establishment (EST1) score Av, 14 days after sowing [22]
2.33: establishment (EST1) score Av, 14 days after sowing (AHAS1 HETO112, AHAS3 WT, treatment B 10 g a.i./ha pre-planting, Location B) | establishment (EST1) score Av, 14 days after sowing [17] | establishment (EST1) score Av, 14 days after sowing [20]
